Changes are numbered by the printed parent chain. The source made the active and inactive calls. The rule behind the calls is not given here.
Tests used:
Plasma = assay: Fraction unbound in rat plasma; assay type: ADME, cell-free
[1] = AUC in rat at 1 mg/kg, iv; assay type: ADME, organism-based; parameters: dose 1 mg/kg, route intravenous; settings: plasma
[2] = biological target: T1, Muscarinic acetylcholine receptor M5 (Rattus norvegicus, UniProt P08911); assay: Agonist activity at rat recombinant muscarinic M5 receptor by HTS cell based assay; assay type: functional
T1 sequence (P08911 whole entry): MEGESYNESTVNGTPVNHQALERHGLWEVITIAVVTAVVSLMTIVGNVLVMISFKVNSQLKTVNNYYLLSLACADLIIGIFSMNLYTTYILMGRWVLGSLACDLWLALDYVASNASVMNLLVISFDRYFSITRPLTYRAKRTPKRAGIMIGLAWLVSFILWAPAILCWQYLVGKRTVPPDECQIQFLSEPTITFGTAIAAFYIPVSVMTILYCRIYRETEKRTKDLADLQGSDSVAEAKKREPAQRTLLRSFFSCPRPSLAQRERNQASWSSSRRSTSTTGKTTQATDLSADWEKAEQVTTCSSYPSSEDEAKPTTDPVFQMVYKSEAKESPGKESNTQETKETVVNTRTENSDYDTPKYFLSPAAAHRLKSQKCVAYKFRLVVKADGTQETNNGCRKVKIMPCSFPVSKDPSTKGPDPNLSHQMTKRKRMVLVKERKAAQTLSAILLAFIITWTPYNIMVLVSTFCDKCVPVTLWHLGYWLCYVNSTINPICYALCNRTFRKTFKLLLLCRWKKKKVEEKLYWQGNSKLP

[3] = biological target: T2, Muscarinic acetylcholine receptor M1 (Homo sapiens, UniProt P11229); assay: Agonist activity at human recombinant muscarinic M1 receptor by HTS cell based assay; assay type: functional
T2 sequence (P11229 whole entry): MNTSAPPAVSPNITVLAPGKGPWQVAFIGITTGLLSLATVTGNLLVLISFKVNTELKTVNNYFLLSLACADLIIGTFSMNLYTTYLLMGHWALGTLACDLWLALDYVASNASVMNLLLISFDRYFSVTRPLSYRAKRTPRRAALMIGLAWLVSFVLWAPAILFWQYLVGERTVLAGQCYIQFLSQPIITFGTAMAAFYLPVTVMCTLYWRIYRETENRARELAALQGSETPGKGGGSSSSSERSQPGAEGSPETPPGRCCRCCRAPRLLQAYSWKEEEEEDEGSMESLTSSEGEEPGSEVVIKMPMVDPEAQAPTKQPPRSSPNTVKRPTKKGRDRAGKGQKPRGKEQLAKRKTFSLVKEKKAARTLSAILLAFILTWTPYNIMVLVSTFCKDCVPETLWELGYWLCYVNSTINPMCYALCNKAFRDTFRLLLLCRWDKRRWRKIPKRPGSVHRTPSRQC

[4] = biological target: T3, Muscarinic acetylcholine receptor M1 (Rattus norvegicus) (UniProt P08482); assay: Agonist activity at rat muscarinic M1 receptor expressed in CHO cells at 10 uM; assay type: functional, cell-based
T3 sequence (whole entry): T2 sequence (P11229 whole entry) with A5V, T254S, P309S, R320K, A337G, I413V

hERG (KCNH2) = hERG (KCNH2) (Homo sapiens, UniProt Q12809); assay: Inhibition of human ERG at 10 uM
hERG (KCNH2), sequence (Q12809 whole entry): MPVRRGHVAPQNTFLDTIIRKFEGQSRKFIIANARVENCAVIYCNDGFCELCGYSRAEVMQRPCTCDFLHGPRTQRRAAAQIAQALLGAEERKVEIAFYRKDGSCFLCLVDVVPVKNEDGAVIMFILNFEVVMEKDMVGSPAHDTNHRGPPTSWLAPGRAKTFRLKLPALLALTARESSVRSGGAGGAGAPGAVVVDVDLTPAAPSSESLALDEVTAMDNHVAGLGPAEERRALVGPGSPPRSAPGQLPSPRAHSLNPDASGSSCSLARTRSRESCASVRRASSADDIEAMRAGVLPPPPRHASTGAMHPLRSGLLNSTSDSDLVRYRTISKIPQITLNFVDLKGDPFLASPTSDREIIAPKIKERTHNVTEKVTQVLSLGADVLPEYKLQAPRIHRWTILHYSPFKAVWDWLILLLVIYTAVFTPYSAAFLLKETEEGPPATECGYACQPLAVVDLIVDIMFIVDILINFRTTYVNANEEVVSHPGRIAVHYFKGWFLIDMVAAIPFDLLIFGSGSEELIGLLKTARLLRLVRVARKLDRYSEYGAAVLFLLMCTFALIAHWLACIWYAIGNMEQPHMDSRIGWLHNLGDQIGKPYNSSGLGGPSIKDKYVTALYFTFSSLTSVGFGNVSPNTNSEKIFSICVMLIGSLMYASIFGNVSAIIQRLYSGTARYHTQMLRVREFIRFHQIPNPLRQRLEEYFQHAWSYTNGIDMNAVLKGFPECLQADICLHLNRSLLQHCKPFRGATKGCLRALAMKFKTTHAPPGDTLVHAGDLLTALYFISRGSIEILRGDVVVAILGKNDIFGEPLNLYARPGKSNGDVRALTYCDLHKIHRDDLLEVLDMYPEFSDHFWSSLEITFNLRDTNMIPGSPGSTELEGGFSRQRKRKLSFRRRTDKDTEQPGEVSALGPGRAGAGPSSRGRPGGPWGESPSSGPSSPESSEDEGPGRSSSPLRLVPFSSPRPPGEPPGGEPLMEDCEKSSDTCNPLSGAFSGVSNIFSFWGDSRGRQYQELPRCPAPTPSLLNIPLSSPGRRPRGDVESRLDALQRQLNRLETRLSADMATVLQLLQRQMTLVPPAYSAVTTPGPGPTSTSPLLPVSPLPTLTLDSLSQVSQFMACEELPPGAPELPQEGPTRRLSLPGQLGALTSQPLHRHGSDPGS

Cytochrome P450 1A2 = biological target: T4, Cytochrome P450 1A2 (Homo sapiens, UniProt P05177); assay: Inhibition of CYP1A2; assay type: ADME
T4 sequence (P05177 whole entry): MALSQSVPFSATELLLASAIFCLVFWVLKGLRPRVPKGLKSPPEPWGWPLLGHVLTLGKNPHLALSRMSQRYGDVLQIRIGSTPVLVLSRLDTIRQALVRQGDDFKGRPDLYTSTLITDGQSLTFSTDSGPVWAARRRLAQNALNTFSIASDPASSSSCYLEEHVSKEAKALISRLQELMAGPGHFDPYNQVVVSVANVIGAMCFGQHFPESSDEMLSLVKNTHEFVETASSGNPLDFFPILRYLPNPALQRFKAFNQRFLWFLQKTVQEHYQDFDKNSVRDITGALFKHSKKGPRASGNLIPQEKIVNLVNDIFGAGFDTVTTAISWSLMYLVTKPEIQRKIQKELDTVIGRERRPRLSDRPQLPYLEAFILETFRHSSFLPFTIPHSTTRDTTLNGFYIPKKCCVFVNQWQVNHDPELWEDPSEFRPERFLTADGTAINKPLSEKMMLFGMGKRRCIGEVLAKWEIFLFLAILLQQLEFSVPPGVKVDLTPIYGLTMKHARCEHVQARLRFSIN

[5] = Clearance in rat at 1 mg/kg, iv and 10 mg/kg, po; assay type: ADME, organism-based; settings: in vivo
[6] = biological target: T5, Muscarinic acetylcholine receptor M4 (Homo sapiens, UniProt P08173); assay: Agonist activity at human recombinant muscarinic M4 receptor by HTS cell based assay; assay type: functional
T5 sequence (P08173 whole entry): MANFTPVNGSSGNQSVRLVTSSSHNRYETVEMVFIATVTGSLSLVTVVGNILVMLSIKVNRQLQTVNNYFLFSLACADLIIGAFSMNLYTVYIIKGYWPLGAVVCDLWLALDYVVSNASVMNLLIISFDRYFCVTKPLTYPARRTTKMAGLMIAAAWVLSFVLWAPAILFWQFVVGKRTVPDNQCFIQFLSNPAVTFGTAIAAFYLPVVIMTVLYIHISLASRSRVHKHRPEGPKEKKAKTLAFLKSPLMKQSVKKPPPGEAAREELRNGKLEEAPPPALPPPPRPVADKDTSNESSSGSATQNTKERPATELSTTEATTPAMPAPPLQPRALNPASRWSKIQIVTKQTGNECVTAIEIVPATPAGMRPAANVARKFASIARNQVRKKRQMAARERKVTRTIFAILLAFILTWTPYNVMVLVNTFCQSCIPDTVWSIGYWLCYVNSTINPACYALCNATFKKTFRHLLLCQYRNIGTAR

[7] = biological target: Muscarinic acetylcholine receptor M3 (Rattus norvegicus, UniProt P08483); assay: Agonist activity at rat muscarinic M3 receptor expressed in CHO cells; assay type: functional, cell-based
Muscarinic acetylcholine receptor M3, sequence (P08483 whole entry): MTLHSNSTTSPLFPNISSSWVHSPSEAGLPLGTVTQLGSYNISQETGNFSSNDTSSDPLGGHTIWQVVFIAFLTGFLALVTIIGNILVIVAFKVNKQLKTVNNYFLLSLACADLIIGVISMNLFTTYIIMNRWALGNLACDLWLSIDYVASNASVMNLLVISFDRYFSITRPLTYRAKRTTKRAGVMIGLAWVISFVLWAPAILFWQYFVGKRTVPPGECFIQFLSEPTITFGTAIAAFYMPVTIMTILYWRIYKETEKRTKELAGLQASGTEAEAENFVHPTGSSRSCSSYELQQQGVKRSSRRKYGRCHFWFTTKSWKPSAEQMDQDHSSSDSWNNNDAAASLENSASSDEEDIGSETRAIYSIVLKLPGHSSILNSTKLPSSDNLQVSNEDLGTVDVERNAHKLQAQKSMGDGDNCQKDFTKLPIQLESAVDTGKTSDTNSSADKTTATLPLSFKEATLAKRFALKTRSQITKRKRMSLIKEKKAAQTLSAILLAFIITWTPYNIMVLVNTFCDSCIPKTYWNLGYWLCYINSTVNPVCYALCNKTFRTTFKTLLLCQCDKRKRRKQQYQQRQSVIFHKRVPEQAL

[8] = Drug uptake in Sprague-Dawley rat brain at 10 mg/kg, po after 90 mins; assay type: ADME, organism-based; parameters: dose 10 mg/kg, route oral; settings: read-out: Drug uptake
[9] = biological target: T3, Muscarinic acetylcholine receptor M1 (Rattus norvegicus); assay: Agonist activity at rat muscarinic M1 receptor expressed in CHO cells relative to acetylcholine; assay type: functional, cell-based
[10] = biological target: T6, Muscarinic acetylcholine receptor M1 (Rattus norvegicus, UniProt P08482); assay: Agonist activity at rat muscarinic M1 receptor expressed in CHO cells; assay type: functional, cell-based
T6 sequence (P08482 whole entry): T2 sequence (P11229 whole entry) with A5V, T254S, P309S, R320K, A337G, I413V

[11] = biological target: T6, Muscarinic acetylcholine receptor M1; assay: Agonist activity at rat recombinant muscarinic M1 receptor by HTS cell based assay; assay type: functional
Rattus norvegicus = assay: Oral bioavailability in rat 10 mg/kg; assay type: ADME, organism-based; settings: in vivo

Which Fu (Plasma) does the source give for `CCOC(=O)N1CCC(N2CCC[C@@H](NC(=O)c3ccccc3C)C2)CC1` here?
The Fu was 14.9%.

What about the AUC [1] of the same compound?
Its AUC is 1100 ng·h/mL.

And the EC50 [2]?
Its EC50 is over 30 µM.

What about the EC50 [3] of the same compound?
Its EC50 is 1.3 µM.

What about the activation [4] of the same compound?
Its activation is “Active”.

What about the inhibition at 10 µM (hERG (KCNH2)) of the same compound?
The inhibition at 10 µM was 22%.

And the IC50 (Cytochrome P450 1A2)?
Its IC50 is over 25 µM.

And the clearance [5]?
The clearance was 14.7 mL/min/kg.

What about the EC50 [6] of the same compound?
Its EC50 is over 30 µM.

And the EC50 [7]?
Its EC50 is over 30 µM.

And the concentration at 1.5 h [8]?
Its concentration at 1.5 h is 1890 nM.

What about the Emax [9] of the same compound?
Its Emax is 96%.

And the EC50 [10]?
The EC50 was 0.11 µM.

And the EC50 [11]?
The EC50 was 1.3 µM.

And the F (Rattus norvegicus)?
The F was 37%.

Which EC50 [2] does the source give for `CCOC(=O)N1CCC(NCCNC(=O)c2ccccc2C)CC1` here?
The EC50 was over 30 µM.

And the EC50 [3]?
Its EC50 is 2.3 µM.

What about the EC50 [6] of the same compound?
The EC50 was over 30 µM.

What about the EC50 [7] of the same compound?
The EC50 was over 30 µM.

What about the Emax [9] of the same compound?
The Emax was 81%.

What about the EC50 ([10]; cho) of the same compound?
The EC50 was 0.2 µM.

What about the EC50 [11] of the same compound?
Its EC50 is 2.3 µM.

— ChEMBL document CHEMBL1914417 (Bioorg Med Chem Lett, 2011)
